Tests used:
Casein kinase 2 (CK2) = target: T1, Casein kinase 2 (CK2) (Homo sapiens, UniProt P68400); experiment: ADP-Glo kinase assay, single concentration […], duplicates; format: biochemical; conditions: read-out: % inhibition at 10 μM
T1 construct: gene CSNK2A1

[1] = target: T2, vascular endothelial growth factor receptor 3 (VEGFR3) (Homo sapiens, UniProt P35916); experiment: ADP-Glo kinase selectivity panel, single concentration […] with […] ATP; format: biochemical
T2 construct: gene FLT4
T2 sequence (P35916 25-1363): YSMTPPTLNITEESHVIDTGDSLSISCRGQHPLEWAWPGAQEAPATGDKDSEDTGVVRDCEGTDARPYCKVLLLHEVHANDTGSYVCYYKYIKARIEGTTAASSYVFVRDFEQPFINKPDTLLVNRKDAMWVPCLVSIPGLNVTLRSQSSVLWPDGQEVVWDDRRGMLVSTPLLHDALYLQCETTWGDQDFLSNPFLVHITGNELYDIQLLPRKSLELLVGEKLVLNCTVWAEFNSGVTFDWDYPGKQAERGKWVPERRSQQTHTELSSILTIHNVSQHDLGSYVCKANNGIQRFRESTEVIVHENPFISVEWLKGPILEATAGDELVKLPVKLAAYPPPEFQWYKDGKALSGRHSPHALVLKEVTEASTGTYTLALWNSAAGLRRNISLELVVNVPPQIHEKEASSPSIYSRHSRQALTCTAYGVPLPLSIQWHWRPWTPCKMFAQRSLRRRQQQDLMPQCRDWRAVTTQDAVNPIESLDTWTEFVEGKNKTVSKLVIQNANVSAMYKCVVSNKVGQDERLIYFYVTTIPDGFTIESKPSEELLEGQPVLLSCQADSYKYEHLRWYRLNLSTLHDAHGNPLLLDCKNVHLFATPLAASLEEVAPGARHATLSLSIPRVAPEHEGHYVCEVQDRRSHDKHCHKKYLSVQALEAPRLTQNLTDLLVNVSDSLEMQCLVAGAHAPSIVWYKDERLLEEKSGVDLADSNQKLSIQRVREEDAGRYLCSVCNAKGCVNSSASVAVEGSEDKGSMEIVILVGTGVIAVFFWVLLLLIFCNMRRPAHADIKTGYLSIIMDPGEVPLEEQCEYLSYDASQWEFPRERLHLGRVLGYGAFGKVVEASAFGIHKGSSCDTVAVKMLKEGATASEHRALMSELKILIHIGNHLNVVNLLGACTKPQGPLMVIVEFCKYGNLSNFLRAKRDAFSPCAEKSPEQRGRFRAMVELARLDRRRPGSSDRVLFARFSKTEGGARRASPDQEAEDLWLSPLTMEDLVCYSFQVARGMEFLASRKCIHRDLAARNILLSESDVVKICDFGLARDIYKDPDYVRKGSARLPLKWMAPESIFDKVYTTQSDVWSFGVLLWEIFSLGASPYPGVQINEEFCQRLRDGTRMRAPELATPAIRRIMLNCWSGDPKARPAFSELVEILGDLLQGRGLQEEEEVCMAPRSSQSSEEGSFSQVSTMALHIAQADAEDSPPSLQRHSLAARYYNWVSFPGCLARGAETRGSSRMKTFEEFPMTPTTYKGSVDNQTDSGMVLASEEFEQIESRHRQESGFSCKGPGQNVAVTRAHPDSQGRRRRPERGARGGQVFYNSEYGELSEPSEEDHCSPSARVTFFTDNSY

T1 sequence (P68400 whole entry): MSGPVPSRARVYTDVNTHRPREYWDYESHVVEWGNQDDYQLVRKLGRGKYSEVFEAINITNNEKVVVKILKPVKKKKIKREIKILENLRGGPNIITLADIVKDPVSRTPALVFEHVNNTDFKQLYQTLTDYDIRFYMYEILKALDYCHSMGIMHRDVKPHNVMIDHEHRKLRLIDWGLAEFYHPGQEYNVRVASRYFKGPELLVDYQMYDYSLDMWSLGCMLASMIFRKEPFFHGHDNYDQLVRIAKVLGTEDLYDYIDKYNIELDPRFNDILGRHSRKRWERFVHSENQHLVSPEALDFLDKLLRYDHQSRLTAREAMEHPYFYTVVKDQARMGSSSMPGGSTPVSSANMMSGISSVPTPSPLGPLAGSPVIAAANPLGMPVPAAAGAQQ
T1 sequence (P67870 2-215 partner): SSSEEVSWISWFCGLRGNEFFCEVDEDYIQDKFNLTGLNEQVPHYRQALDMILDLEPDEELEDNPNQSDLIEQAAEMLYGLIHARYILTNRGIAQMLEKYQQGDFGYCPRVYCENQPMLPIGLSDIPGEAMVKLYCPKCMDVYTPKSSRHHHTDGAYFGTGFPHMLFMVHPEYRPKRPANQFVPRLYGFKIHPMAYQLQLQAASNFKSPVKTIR

| inhibition at 10 µM [1] | Compound | inhibition at 10 µM (Casein kinase 2 (CK2)) |
| --- | --- | --- |
|  | COc1cc(/C=C/C(=O)CC(=O)/C=C/c2ccc(O)c(OC)c2)ccc1O [1-D6, (1E,6E)-1,7-Bis(4-hydroxy-3-methoxyphenyl)-1,6-heptadiene-3,5-dione] | > 50% |
|  | COc1cccc2c1cc([N+](=O)[O-])c1c(C(=O)O)cc3c(c12)OCO3 [1-F3, 8-methoxy-6-nitro phenanthro[3,4-d] [1, 3] dioxole-5-carboxylic acid] | > 50% |
| 59% | O=c1oc2cc(O)ccc2c2oc3cc(O)ccc3c12 [1-F4, 3,9-Dihydroxy-6-benzofurano [3,2-c]chromenone] |  |

From paper PMC3726451, “Coumestrol from the national cancer Institute’s natural product library is a novel inhibitor of protein kinase CK2” (BMC Pharmacology & Toxicology, 2013)
